Publication PMC12693701, “Glucosinolate-Derived Metabolites from Barbarea vulgaris (Brassicaceae): Evaluation of Antimicrobial, Antioxidant, and Anti-Inflammatory Potentials” (Molecules, 2025)
Values after ≈ are worked out from the molar mass of the structure shown.

Tests used:
B. cereus = test: Microdilution MIC/MMC with resazurin; assay type: cell-based, Bacillus cereus; conditions: B. cereus, compounds 1–8; for MIC: Bacillus cereus, read-out: MIC
Description: (§1) The antimicrobial activity was evaluated against 15 microorganisms. This included 11 bacterial strains: four standard strains (Staphylococcus aureus ATCC 25923, Bacillus subtilis ATCC 6633, Bacillus pumilus NCTC 8241, and Escherichia coli ATCC 25922) and six clinical or environmental isolates (Staphylococcus aureus, Escherichia coli, Bacillus cereus, Proteus mirabilis, Salmonella enterica, and Klebsiella pneumoniae). One probiotic strain, Bifidobacterium animalis subsp. lactis was tested. In addition, four fungal strains, Candida albicans ATCC 10231, Trichoderma viride ATCC 13233, Aspergillus flavus ATCC 9170, and Fusarium solani ATCC 11712 were tested. The bacterial strains were kept in glycerol stock at −80 °C and the fungal strains in paraffin oil stock at 4 °C.
(§2) Bacterial and yeast suspensions were prepared using the direct colony method, as previously described by Andrews. The turbidity of the initial suspensions was adjusted to match the 0.5 McFarland standard using a densitometer (Biosan, Riga, Latvia), corresponding to approximately 10^8 colony-forming units (CFU)/mL for bacterial cells and 10^6 CFU/mL for yeast cells. Subsequently, 1:100 dilutions of the initial suspensions were prepared in sterile 0.85% saline. Fungal spore suspensions were obtained by gently harvesting spores from agar slopes containing mature mycelial growth. The collected spore suspensions were then diluted 1:1000 in sterile 0.85% saline prior to use.
(§3) Antimicrobial activity was evaluated by determining the minimum inhibitory concentration (MIC) and minimum microbicidal concentration (MMC) using the microdilution plate method with resazurin as an indicator [28]. In the 96-well plates, 100 μL of Mueller–Hinton broth (Torlak, Belgrade, Serbia) for bacterial testing and Sabouraud broth (Torlak, Belgrade, Serbia) for fungal testing were dispensed into each well. The compounds under investigation were initially dissolved in a 10% dimethyl sulfoxide (DMSO) solution, followed by dilution in sterile distilled water, resulting in a working compound solution containing 1% DMSO. A 100 μL aliquot of the stock solution of the tested compound was added to the first row, and twofold serial dilutions were then carried out using a multichannel pipette. The resulting concentration range was from 5 to 0.039 mg/mL. The inoculated microtiter plates were incubated at 37 °C for 24 h for bacteria, at 28 °C for 48 h for yeasts, and at 28 °C for 72 h for molds.
(§4) Each test also included growth control and sterility control. All tests were conducted in duplicate. MIC was defined as the lowest concentration of tested compounds that prevented resazurin color change from blue to pink. For molds, MIC values of the tested compound were determined as the lowest concentration that inhibited visible mycelia growth. MMC was determined by inoculation of the nutrient agar medium by plating […] of samples from wells, where no indicator color change was recorded. At the end of the incubation period, the lowest concentration with no growth (no colony) was defined as MMC.
(§5) Doxycycline, ampicillin and amphotericin B (- Sigma-Aldrich, St. Louis, MO, USA) and ketoconazole (Hemofarm A.D., Vršac, Serbia) were dissolved in a nutrient liquid medium. Doxycycline is a broad-spectrum antibiotic effective against both aerobic and anaerobic Gram-positive and Gram-negative bacteria. Ampicillin, a beta-lactam antibiotic, primarily targets Gram-positive bacteria but also some Gram-negative strains. Amphotericin B is an antifungal drug often used for serious systemic fungal infections and is one of the effective treatments for fungal infections caused by Aspergillus sp. Ketoconazole is an antifungal agent used to inhibit the growth of Candida species.

[1] = molecular target: T1, Type I-B soybean lipoxygenase (Glycine max, UniProt P08170); test: LOX inhibition assay; assay type: biochemical; conditions: mean ± SD; for inhibition at 100 µM: read-out: Percentage of LOX Inhibition
T1 sequence (P08170 1-839): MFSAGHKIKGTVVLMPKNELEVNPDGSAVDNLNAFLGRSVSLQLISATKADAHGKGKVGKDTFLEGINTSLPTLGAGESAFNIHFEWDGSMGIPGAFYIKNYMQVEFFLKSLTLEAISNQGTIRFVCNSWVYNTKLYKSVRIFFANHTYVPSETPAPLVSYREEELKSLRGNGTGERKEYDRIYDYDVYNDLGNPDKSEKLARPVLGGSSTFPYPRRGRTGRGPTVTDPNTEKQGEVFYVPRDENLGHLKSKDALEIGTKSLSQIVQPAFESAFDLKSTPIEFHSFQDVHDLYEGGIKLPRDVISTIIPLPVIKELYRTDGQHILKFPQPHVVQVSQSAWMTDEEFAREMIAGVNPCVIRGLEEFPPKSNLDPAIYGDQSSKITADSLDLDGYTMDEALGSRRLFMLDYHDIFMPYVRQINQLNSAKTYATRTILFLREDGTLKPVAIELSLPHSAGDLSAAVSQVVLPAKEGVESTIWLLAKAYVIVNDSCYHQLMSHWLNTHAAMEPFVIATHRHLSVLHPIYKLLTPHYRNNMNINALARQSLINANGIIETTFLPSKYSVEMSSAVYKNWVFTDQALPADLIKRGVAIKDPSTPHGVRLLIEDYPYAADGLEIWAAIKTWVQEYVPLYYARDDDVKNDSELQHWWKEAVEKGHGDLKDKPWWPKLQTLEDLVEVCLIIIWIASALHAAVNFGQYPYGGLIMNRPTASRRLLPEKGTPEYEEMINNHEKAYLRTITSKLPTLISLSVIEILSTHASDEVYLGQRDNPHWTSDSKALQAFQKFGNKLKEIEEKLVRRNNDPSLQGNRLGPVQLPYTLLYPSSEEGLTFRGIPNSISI
Description: Type I-B soybean lipoxygenase is a commonly used enzyme for studying the anti-inflammatory properties of various compounds [19]. The lipoxygenase (LOX) inhibition assay measures the enzyme’s ability to convert sodium linoleate to 13-hydroperoxylinoleic acid. The inhibition of the enzyme by the investigated compounds was determined by measuring the absorbance at 234 nm for each prepared sample. Specifically, the test compound, Tris buffer, an enzyme solution (5 × 10^3 units/mL in saline), and sodium linoleate (3 mM in Tris buffer, pH 9), were added to a UV cuvette, and the absorbance was recorded. […] All measurements were performed in triplicate.

P. mirabilis = test: Microdilution MIC/MMC with resazurin; assay type: cell-based, Proteus mirabilis; conditions: P. mirabilis, compounds 1–8; for MIC: Proteus mirabilis, read-out: MIC
Description: as §1, §2, §3, §4, §5

B. pumilus NCTC 8241 = test: Microdilution MIC/MMC with resazurin; assay type: cell-based, Bacillus pumilus; conditions: B. pumilus NCTC 8241, compounds 1–8; for MIC: Bacillus pumilus, NCTC8241, read-out: MIC
Description: as §1, §2, §3, §4, §5

A. flavus ATCC 9170 = test: Microdilution MIC/MMC; assay type: cell-based, Aspergillus flavus; conditions: A. flavus ATCC 9170, compounds 1–8; for MIC: Aspergillus flavus, ATCC9170, read-out: MIC
Description: as §1, §2, §3, §4, §5

F. solani ATCC 11712 = test: Microdilution MIC/MMC; assay type: cell-based, Fusarium solani; conditions: F. solani ATCC 11712, compounds 1–8; for MIC: Fusarium solani, ATCC11712, read-out: MIC
Description: as §1, §2, §3, §4, §5

S. enterica = test: Microdilution MIC/MMC with resazurin; assay type: cell-based, Salmonella enterica; conditions: compounds 1–8; for MIC: Salmonella enterica
Description: as §1, §2, §3, §4, §5

S=C1NCC(c2ccccc2)O1 (racemic) [Compound 4, rac-5-Phenyl-1,3-oxazolidine-2-thione]
MMC (B. cereus): 5 mg/mL | MIC (B. cereus): 5000 µg/mL (≈ 27.9 mM) | inhibition at 100 µM [1]: 90.5 ± 0.1% | IC50 [1]: 61.6 ± 0.6 µM | MMC (P. mirabilis): 5 mg/mL | MIC (P. mirabilis): 2500 µg/mL (≈ 13.9 mM) | MMC (B. pumilus NCTC 8241): 2.5 mg/mL | MIC (B. pumilus NCTC 8241): 1250 µg/mL (≈ 6.97 mM) | MMC (A. flavus ATCC 9170): >5 mg/mL | MIC (A. flavus ATCC 9170): > 5000 µg/mL | MMC (F. solani ATCC 11712): 3.75 mg/mL | MIC (F. solani ATCC 11712): 2500 µg/mL (≈ 13.9 mM) | MIC (S. enterica): 2500 µg/mL (≈ 13.9 mM) | MMC (S. enterica): 5 mg/mL

CSC(=S)NCCc1ccccc1 [Compound 1, Methyl phenethylcarbamodithioate]
MMC (B. cereus): 5 mg/mL | MIC (B. cereus): 5000 µg/mL (≈ 23.7 mM) | inhibition at 100 µM [1]: 47.5 ± 1.5% | IC50 [1]: 125.5 ± 0.4 µM | MMC (P. mirabilis): 5 mg/mL | MIC (P. mirabilis): 5000 µg/mL (≈ 23.7 mM) | MMC (B. pumilus NCTC 8241): 2.5 mg/mL | MIC (B. pumilus NCTC 8241): 1250 µg/mL (≈ 5.91 mM) | MMC (A. flavus ATCC 9170): 2.5 mg/mL | MIC (A. flavus ATCC 9170): 1250 µg/mL (≈ 5.91 mM) | MMC (F. solani ATCC 11712): 1.25 mg/mL | MIC (F. solani ATCC 11712): 1250 µg/mL (≈ 5.91 mM) | MIC (S. enterica): 5000 µg/mL (≈ 23.7 mM) | MMC (S. enterica): 5 mg/mL

CSC(=S)NCCc1ccc(O)cc1 [Compound 2, methyl-4-hydroxyphenylethyl dithiocarbamate]
MMC (B. cereus): 0.625 mg/mL | MIC (B. cereus): 156 µg/mL (≈ 0.686 mM) | inhibition at 100 µM [1]: 55.5 ± 0.1% | IC50 [1]: 97.4 ± 1.3 µM | MMC (P. mirabilis): 0.312 mg/mL | MIC (P. mirabilis): 156 µg/mL (≈ 0.686 mM) | MMC (B. pumilus NCTC 8241): 0.156 mg/mL | MIC (B. pumilus NCTC 8241): 156 µg/mL (≈ 0.686 mM) | MMC (A. flavus ATCC 9170): 0.625 mg/mL | MIC (A. flavus ATCC 9170): 312 µg/mL (≈ 1.37 mM) | MMC (F. solani ATCC 11712): 0.234 mg/mL | MIC (F. solani ATCC 11712): 156 µg/mL (≈ 0.686 mM) | MIC (S. enterica): 625 µg/mL (≈ 2.75 mM)

O=C(O)C1CSC(=S)N1 (stereo not drawn) [Compound 3, 2-Thioxothiazolidine-4-carboxylic Acid]
MMC (B. cereus): 2.5 mg/mL | MIC (B. cereus): 2500 µg/mL (≈ 15.3 mM) | inhibition at 100 µM [1]: 23.8 ± 0.8% | MMC (P. mirabilis): 2.5 mg/mL | MIC (P. mirabilis): 2500 µg/mL (≈ 15.3 mM) | MMC (B. pumilus NCTC 8241): 0.625 mg/mL | MIC (B. pumilus NCTC 8241): 625 µg/mL (≈ 3.83 mM) | MMC (A. flavus ATCC 9170): 5 mg/mL | MIC (A. flavus ATCC 9170): 5000 µg/mL (≈ 30.6 mM) | MMC (F. solani ATCC 11712): 0.625 mg/mL | MIC (F. solani ATCC 11712): 625 µg/mL (≈ 3.83 mM) | MIC (S. enterica): 2500 µg/mL (≈ 15.3 mM) | MMC (S. enterica): 2.5 mg/mL
